Test results as given in US8841233B2, “Herbicidal compositions comprising 4-amino-3-chloro-5-fluoro-6-(4-chloro-2-fluoro-3-methoxyphenyl) pyridine-2-carboxylic acid or a derivative thereof and 4-hydroxyphenyl-pyruvate dioxygenase (HPPD) inhibitors” (Dow Agrosciences LLC, priority 2012, dated 2014).

Tested on: DIGSA
Test: Post-emergence foliar-applied weed control, greenhouse (Example I)
Assay type: in vivo, Digitaria sanguinalis (L.) Scop.
From the text: Evaluation of Post-emergence Foliar-Applied Herbicidal Mixtures for Weed Control in Direct Seeded Rice
Seeds or nutlets of the desired test plant species were planted in a soil matrix prepared by mixing a loam or sandy loam soil (e.g., 28.6 percent silt, 18.8 percent clay, and 52.6 percent sand, with a pH of about 5.8 and an organic matter content of about 1.8 percent) and calcareous grit in an 80 to 20 ratio. The soil matrix was contained in plastic pots with a volume of 1 quart and a surface area of 83.6 square centimeters (cm^2). When required to ensure good germination and healthy plants, a fungicide treatment and/or other chemical or physical treatment was applied. The plants were grown for 8-22 days in a greenhouse with an approximate 14 h photoperiod which was maintained at about 29° C. during the day and 26° C. during the night. Nutrients (Peters Excel® 15-5-15 5-Ca 2-Mg and iron chelate) were applied in the irrigation solution as needed and water was added on a regular basis. Supplemental lighting was provided with overhead metal halide 1000-Watt lamps as necessary. The plants were employed for testing when they reached the first through fourth true leaf stage.
Treatments consisted of the acid or esters of 4-amino-3-chloro-5-fluoro-6-(4-chloro-2-fluoro-3-methoxy-phenyl)pyridine-2-carboxylic acid (Compound A), each formulated as an SC (suspension concentrate), and various herbicidal components alone and in combination. Forms of Compound A were applied on an acid equivalent basis.
Other herbicidal components were applied on an active ingredient basis and included 4-hydroxyphenyl pyruvate dioxygenase (HPPD)-inhibiting herbicides mesotrione formulated as Callisto®, sulcotrione formulated as Mikado®, pyrazolynate formulated as Sunbird® 10% GR, and benzobicyclon formulated as Benzobicyclon 3.5%.
Treatment requirements were calculated based upon the rates being tested, the concentration of active ingredient or acid equivalent in the formulation, and a 12 mL application volume at a rate of 187 L/ha.
For treatments comprised of formulated compounds, measured amounts of compounds were placed individually in 25 mL glass vials and diluted in a volume of 1.25% (v/v) Agri-Dex® crop oil concentrated to obtain 12× stock solutions. […] Application solutions were prepared by adding an appropriate amount of each stock solution (e.g., 1 mL) and diluted to the appropriate final concentrations with the addition of 10 mL of an aqueous mixture of 1.25% (v/v) crop oil concentrate so that the final spray solutions contained 1.25+/−0.05% (v/v) crop oil concentrate.
For treatments comprised of formulated and technical compounds, weighed amounts of the technical materials were placed individually in 25 mL glass vials and dissolved in a volume of 97:3 v/v acetone/DMSO to obtain 12× stock solutions, and measured amounts of the formulated compounds were placed individually in 25 mL glass vials and diluted in a volume of 1.5% (v/v) crop oil concentrate or water to obtain 12× stock solutions. […] Application solutions were prepared by adding an appropriate amount of each stock solution (e.g., 1 mL) and diluted to the appropriate final concentrations with the addition of an appropriate amount of an aqueous mixture of 1.5% (v/v) crop oil concentrate so that the final spray solutions contained 1.25% (v/v) crop oil concentrate. As required, additional water and/or 97:3 v/v acetone/DMSO was added to individual application solutions so that the final acetone and DMSO concentrations of the application solutions being compared were 8.1% and 0.25%, respectively.
All stock solutions and applications solutions were visually inspected for compound compatibility prior to application. Spray solutions were applied to the plant material with an overhead Mandel track sprayer equipped with a 8002E nozzles calibrated to deliver 187 L/ha over an application area of 0.503 m^2 at a spray height of 18 to 20 inches (46 to 50 cm) above average plant canopy height. […]

| SMILES | Visual Weed Control (%) - 20 DAA DIGSA Obs (4.38 gae/ha) [%] | Visual Weed Control (%) - 20 DAA DIGSA Obs (8.75 gae/ha) [%] | Visual Weed Control (%) - 20 DAA DIGSA Obs (17.5 gae/ha) [%] | Visual Weed Control (%) - 20 DAA DIGSA Obs (35 gae/ha) [%] |
| --- | --- | --- | --- | --- |
| COc1c(Cl)ccc(-c2nc(C(=O)O)c(Cl)c(N)c2F)c1F [Compound A Acid, 4-amino-3-chloro-6-(4-chloro-2-fluoro-3-methoxyphenyl)-5-fluoropyridine-2-carboxylic acid] | 40 | 45 | 45 | – |
| COc1c(Cl)ccc(-c2nc(C(=O)OCc3ccccc3)c(Cl)c(N)c2F)c1F [Compound A Benzyl Ester, benzyl ester of 4-amino-3-chloro-5-fluoro-6-(4-chloro-2-fluoro-3-methoxy-phenyl)pyridine-2-carboxylic acid] | 25 | 40 | 50 | 38 |
